In paper PMC5674032, “New Insights into PI3K Inhibitor Design using X-ray Structures of PI3Kα Complexed with a Potent Lead Compound” (Scientific Reports, 2017):

Biological target: T1, PI3Kα (p110α) (Homo sapiens, UniProt P42336)
T1 construct: gene PIK3CA; N-6*His tag-TEV site-p85α (318–615) - GSPGISGGGGG-full length p110α fusion protein; with p85α (318–615), PIK3R1
Experiment: X-ray co-crystal structure (apo crystals soaked); IC50 from PI3K HTRF assay on purified enzyme
Type: biochemical
Excerpt: X-ray co-crystal structure (apo crystals soaked); IC50 from PI3K HTRF assay on purified enzyme on PI3Kα (p110α) | The crystal structure of PI3Kα–YXY-4F verified that the compound YXY-4F bound to the ATP-binding pocket

T1 sequence (P42336 whole entry, the tested form may be a part): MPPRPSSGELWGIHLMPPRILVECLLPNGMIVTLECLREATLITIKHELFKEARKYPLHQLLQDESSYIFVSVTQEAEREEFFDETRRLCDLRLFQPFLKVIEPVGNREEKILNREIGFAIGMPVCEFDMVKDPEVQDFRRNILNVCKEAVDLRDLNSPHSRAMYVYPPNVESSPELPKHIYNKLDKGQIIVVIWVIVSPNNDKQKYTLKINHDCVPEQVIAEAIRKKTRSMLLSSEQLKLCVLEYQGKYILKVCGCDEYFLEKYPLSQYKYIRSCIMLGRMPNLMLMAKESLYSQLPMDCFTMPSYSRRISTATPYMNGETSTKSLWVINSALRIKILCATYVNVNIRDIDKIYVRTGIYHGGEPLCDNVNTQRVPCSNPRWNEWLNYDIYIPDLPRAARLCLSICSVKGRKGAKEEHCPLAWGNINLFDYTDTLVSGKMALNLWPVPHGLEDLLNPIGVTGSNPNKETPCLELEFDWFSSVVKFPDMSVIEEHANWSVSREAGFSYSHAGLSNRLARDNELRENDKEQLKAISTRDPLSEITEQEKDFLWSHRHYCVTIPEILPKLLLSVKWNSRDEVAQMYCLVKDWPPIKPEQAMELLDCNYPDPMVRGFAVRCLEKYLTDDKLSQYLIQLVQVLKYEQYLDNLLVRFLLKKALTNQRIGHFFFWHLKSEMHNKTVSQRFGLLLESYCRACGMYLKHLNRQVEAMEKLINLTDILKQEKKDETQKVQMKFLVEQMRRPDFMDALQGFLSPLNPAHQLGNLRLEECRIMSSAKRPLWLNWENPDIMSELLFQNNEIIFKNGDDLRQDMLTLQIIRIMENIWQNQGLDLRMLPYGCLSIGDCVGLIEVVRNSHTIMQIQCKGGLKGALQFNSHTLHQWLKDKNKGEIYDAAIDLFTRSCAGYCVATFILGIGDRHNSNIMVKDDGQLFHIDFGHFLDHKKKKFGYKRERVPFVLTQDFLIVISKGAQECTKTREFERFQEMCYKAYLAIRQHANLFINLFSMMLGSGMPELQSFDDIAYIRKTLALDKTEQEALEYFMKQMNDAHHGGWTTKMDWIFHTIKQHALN
T1 sequence (P27986 318-615 partner): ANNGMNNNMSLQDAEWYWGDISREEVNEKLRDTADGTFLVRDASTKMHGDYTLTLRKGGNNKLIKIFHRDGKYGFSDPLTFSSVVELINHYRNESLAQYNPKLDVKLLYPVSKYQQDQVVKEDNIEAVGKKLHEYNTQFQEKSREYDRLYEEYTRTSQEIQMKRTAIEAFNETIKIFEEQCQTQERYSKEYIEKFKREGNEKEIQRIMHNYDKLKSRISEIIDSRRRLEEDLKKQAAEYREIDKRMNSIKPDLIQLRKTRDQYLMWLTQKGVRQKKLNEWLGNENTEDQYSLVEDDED

IC50: 1020 ± 5 nM
Compound: Oc1cc(NCc2ccc(F)cc2)cc(-c2nc(N3CCOCC3)c3sccc3n2)c1 [YXY-4F]
